In patent publication US10864212B2, “Compositions and methods for treating retinal degradation” (University of Kentucky Research Foundation, priority 2013, dated 2020):
“Also recorded” adds a separate entry of the source.

Assays:
[1] = test system: Casp-1; test: LPS/ATP-induced Casp-1 activation in primary human RPE cells; type: cell-based; conditions: d4T 25/100 uM, FIG. 8
Text: Vinculin was used as the loading control in the gel of FIG. 8. Additionally, as shown, LPS and ATP activate the NLRP3 inflammasome only in combination.
The loading control in FIG. 8 is vinculin. Furthermore, as shown, LPS and ATP activate the NLRP3 inflammasome only in combination, thus treatment with one or the other alone is useful as a control for this experiment.

[2] = test system: IL-1 beta; test: LPS/nigericin-induced IL-1 beta maturation in mouse bone marrow-derived macrophages (Western blot); type: cell-based; conditions: d4T 100, 250 uM, FIG. 10
Text: To produce FIG. 10, cell culture supernatants were collected after (i) no treatment, (ii) LPS treatment, or (iii) LPS/nigericin treatment of mouse bone marrow-derived macrophages and run on Western blotting probing with antibodies for IL-1 beta and Caspase-1.
Cell culture supernatants were collected after (i) no treatment, (ii) LPS treatment, or (iii) LPS/nigericin treatment of mouse bone marrow-derived macrophages, and run on Western blotting probing with antibodies for IL-1 beta and Caspase-1.

[3] = test system: IRAK4; test: Western blot of IRAK4 phosphorylation in primary mouse RPE cells transfected with Alu RNA; type: cell-based; conditions: FIG. 44
[4] = test system: RPE degeneration; test: Alu RNA-induced RPE degeneration in wild type mice, d4T co-delivered to the vitreous humor; type: in vivo, mouse; conditions: sub-retinal Alu RNA, increasing amounts, one week after delivery, FIG. 1
Text: Arrows denote depigmented regions of RPE cell death, which resolve at highest dose of d4T.

[5] = test system: graft-versus-host disease; test: Graft-versus-host disease model, mice receiving allogeneic bone marrow and T cells; type: in vivo, mouse; conditions: saline treated controls 0%
Text: (§1) To explore the potential therapeutic relevance of NRTIs beyond the Alu-induced model of geographic atrophy (GA), it was hypothesized that if NRTIs function as generic inflammasome inhibitors, then they might be broadly useful in other animal models of disease that are also driven by P2X7.

[6] = target: T1, human P2X7 receptor (Homo sapiens, UniProt Q99572); test: bzATP-induced YO-PRO-1 dye uptake in HEK293 cells stably expressing the human P2X7 receptor; type: cell-based
T1 construct: expressed in transfected cells
T1 sequence (Q99572 1-595): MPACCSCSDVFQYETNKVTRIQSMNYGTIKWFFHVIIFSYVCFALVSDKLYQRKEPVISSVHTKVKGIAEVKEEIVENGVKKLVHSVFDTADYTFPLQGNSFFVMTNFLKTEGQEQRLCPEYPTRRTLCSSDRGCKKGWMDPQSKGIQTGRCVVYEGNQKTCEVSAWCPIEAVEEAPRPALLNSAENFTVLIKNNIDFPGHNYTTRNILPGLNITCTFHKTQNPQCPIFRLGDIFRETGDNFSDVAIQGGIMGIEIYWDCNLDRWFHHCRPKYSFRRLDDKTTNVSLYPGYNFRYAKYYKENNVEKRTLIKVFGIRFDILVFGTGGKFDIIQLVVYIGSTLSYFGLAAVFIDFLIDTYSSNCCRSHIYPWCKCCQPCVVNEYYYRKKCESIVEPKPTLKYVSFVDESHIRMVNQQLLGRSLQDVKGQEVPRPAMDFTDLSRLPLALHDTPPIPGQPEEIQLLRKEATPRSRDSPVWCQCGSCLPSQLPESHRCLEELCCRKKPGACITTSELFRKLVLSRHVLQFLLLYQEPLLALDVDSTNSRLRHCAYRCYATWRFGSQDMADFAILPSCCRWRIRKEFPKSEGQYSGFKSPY
Text: Finally, P2X7 activation is associated with the formation of a large pore that is permeable to molecules of up to ˜1000 Da (Adinolfi et al., 2005; Cheewatrakoolpong et al., 2005; Surprenant et al., 1996).

[7] = test system: neutrophil migration; test: NLRP3- and P2X7-driven model of sterile inflammation (liver injury); type: in vivo
Text: as §1

[8] = test system: IL-1 beta; test: MSU-induced IL-1 beta secretion from PMA-differentiated THP-1 monocytes (ELISA); type: cell-based, human; conditions: co-administration at 25-1000 uM, FIG. 11, 12
Text: Human THP-1 monocytes were differentiated into macrophages with PMA.
To illustrate this, human THP-1 monocytes were differentiated into macrophages with PMA. Treatment with MSU increased IL-1 beta secretion compared to non-treated cells.

[9] = test system: IL-1 beta; test: LPS/ATP-induced IL-1 beta activation in primary mouse bone marrow-derived macrophages (Western blot); type: cell-based; conditions: FIG. 39
Text: To determine whether LPS/ATP-induced inflammasome activation can be inhibited without RT inhibition, the present inventors utilized thymidine kinase-deficient (Raji/TK^−) and -expressing (Raji/TK^+) cells (Balzarini et al., 1989). After addition of AZT, […], but not TK^− cells, the present inventors produced AZT-triphosphate (AZT-TP), the AZT metabolite required for RT inhibition (FIG. 40; FIG. 46, FIG. 47, FIG. 48, FIG. 49, FIG. 50).
(§2) FIGS. 38-41 illustrate that NRTIs block LPS/ATP-induced inflammasome activation. […] Representative images of n=3-4 experiments are provided in each of FIGS. 38-41.

[10] = test system: Caspase-1; test: LPS/ATP-induced Caspase-1 activation in mouse bone marrow-derived macrophages (Western blot); type: cell-based
Text: (§3) To produce FIG. 9, cell culture supernatants were collected after (i) no treatment, (ii) LPS treatment, or (iii) LPS/ATP treatment of mouse bone marrow-derived macrophages and run on Western blotting probing with antibodies for Caspase-1 and IL-18.
Further, the present inventors also tested whether NRTIs blocked inflammasome activation by LPS/ATP, which is not known to signal via reverse transcriptase (Mariathasan et al., 2004; Mariathasan et al., 2006; Martinon et al., 2002).
as §2

[11] = test system: IL-18; test: LPS/ATP-induced IL-18 maturation in mouse bone marrow-derived macrophages (Western blot); type: cell-based; conditions: supernatants, 100 uM, FIG. 9
Text: as §3

SMILES: Cc1cn([C@H]2C=C[C@@H](CO)O2)c(=O)[nH]c1=O [d4T, 2′3′ dideoxythymidine]
- Casp-1 activation induced by LPS/ATP [1]: blocks
- IL-1 beta maturation (18 and 22 kDa forms) induced by nigericin [2]: inhibits
- IRAK4 phosphorylation [3]: blocks phosphorylation of IRAK4
- Alu RNA-induced RPE degeneration / RPE cell death (fundus photographs, ZO-1 flat mounts) [4]: prevents Alu RNA-induced RPE cell death in a dose-dependent manner; also recorded: restored to healthy RPE morphology/intercellular junctions at highest dose of d4T
- Survival [5]: 30-70%
- YO-PRO-1 iodide entry stimulated with bzATP ([6]; HEK293 human P2X7, pre-incubated 30 minutes, fluorescence 485/515 nm at t=30 minutes, FIG. 19): blocked YO-PRO-1 iodide entry
- P2X7-mediated YO-PRO-1 dye uptake (fluorescence) induced by bzATP ([6]; bzATP 100 μM, 64 μM for both drugs, p<0.05, n=12, FIG. 43): inhibited
- P2X7-dependent uptake of YO-PRO1 after addition of bzATP ([6]; human P2X7-overexpressing HEK293 stable cell line, concentration not given): inhibited P2X7-dependent uptake of the fluorescent dye YO-PRO1
- Neutrophil migration to the focus of liver injury [7]: reduced neutrophil migration to the focus of liver injury
- IL-1 beta secretion induced by MSU [8]: does not prevent P2X7-independent interleukin 1-beta secretion; also recorded: did not significantly affect IL-1beta secretion
- IL-1 beta activation / secretion of mature IL-1 beta, LPS/ATP [9]: blocks secretion of mature IL-1 beta; also recorded: blocked IL-1 beta
- Caspase-1 activation (active p20 band) induced by LPS/ATP ([10]; mouse bone marrow-derived macrophages, supernatants, 100 uM, FIG. 9): inhibit
- LPS/ATP-induced Caspase-1 maturation ([10]; primary mouse bone marrow-derived macrophages, FIG. 38): inhibited; also recorded: blocked Caspase-1
- IL-18 maturation induced by LPS/ATP [11]: inhibit
